Assay: Thiol recombination: reaction of test compound with cysteine reagent, conversion into mono- and bis-Michael-addition products monitored by LC-MS
Details: 30° C.; for Conversion at 15 min, bis-Michael-addition product (bis) / Conversion at 15 min, mono-Michael-addition product (mono) / Conversion at 30 min, bis-Michael-addition product (bis) / Conversion at 30 min, mono-Michael-addition product (mono) / Conversion at 60 min, bis-Michael-addition product (bis) / Conversion at 60 min, mono-Michael-addition product (mono): test solution 1 (pH=5.4), 0.05M
Source text: N-Fmoc-cysteine (hereinafter C1) or N-Cbz-cysteine (hereinafter C2) were obtained by reduction of their cysteine counterparts via a literature known method. Adv. Syn. Catal., 2020, 362, 5093-5104. DOI: 10.1002/adsc.202000716. “OLAPLEX® No. 0 Intensive Bond Building Hair Treatment” is a commercially available product which comprises an active agent, water, phenoxyethanol and sodium benzoate. The active agent is hereinafter labelled “Olaplex active agent” or “reference compound #2”.
The compound to be tested (1 eq.) was dissolved in an aqueous media (0.02-0.05 M) and 4 eq. of cysteine reagent (N-Fmoc-cysteine (C1) or N-Cbz-cysteine (C2)) were added. Two test solutions were used as aqueous media: test solution 1 was a phosphate buffer (pH=5.4) with or without an emulsifier (e.g. Eumulgin) and test solution 2 was an aqueous solution containing 0.49% (w/w) sodium benzoate and 0.30% (w/w) citric acid with or without an emulsifier (e.g. Eumulgin).
To make the phosphate buffer a solution of 0.1-M solution of citric acid (use citric acid monohydrate) and a 0.2-M solution of Na2HPO4 (use Na2HPO4 or Na2HPO4*2H2O) were prepared and mixed with the following ratio: 44.25 mL/55.75 mL=mL 0.1M-citric acid/mL 0.2M Na2HPO4 to give a buffer solution with pH=5.4.
The tests were performed at ambient temperature of 30° C. under stirring with small magnetic stirrers in LC-MS vials or small glass vials (see picture 1). The reactions were performed under normal atmosphere. The reactions were monitored by LC-MS. The reaction scale was between 4 and 10 mg of tested compound. To calculate the conversion into products the ratio between cysteine reagent, mono-Michael-addition product (mono) and bis-Michael-addition product (bis) as shown in the following schemes were compared.

[1] = test solution 1 (pH=5.4)+1% eumulgin, 0.02M
[2] = test solution 1 (pH=5.4)+1% eumulgin, 0.02M, 60 min
[3] = test solution 1 (pH=5.4)+2.5% eumulgin, 0.02M
[4] = test solution 1 (pH=5.4)+2.5% eumulgin, 0.02M, 60 min
[5] = test solution 2+1% Eumulgin, 0.02M
[6] = test solution 2+1% Eumulgin, 0.02M, 60 min

SMILES	Conversion at 30 min, bis [1] [% bis]	Conversion at 30 min, mono [1] [% mono]	Conversion at 60 min, bis [2] [% bis]	Conversion at 60 min, mono [2] [% mono]	Conversion at 30 min, bis [3] [% bis]	Conversion at 60 min, bis [4] [% bis]	Conversion at 5 h, bis [3] [% bis]	Conversion at 15 min, bis-Michael-addition product (bis) [% bis]	Conversion at 15 min, mono-Michael-addition product (mono) [% mono]	Conversion at 30 min, bis-Michael-addition product (bis) [% bis]	Conversion at 30 min, mono-Michael-addition product (mono) [% mono]	Conversion at 60 min, bis-Michael-addition product (bis) (60 min) [% bis]	Conversion at 60 min, mono-Michael-addition product (mono) (60 min) [% mono]	Conversion at 30 min, bis [5] [% bis]	Conversion at 30 min, mono [5] [% mono]	Conversion at 60 min, bis [6] [% bis]	Conversion at 60 min, mono [6] [% mono]	Conversion at 60 min, mono and bis (test solution 2+1% Eumulgin, 0.02M, 60 min, mono and bis together, peaks are not separated in LC-MS)
O=C1C=CC(=O)N1CCOCCOCC12CC(COCCOCCN3C(=O)C=CC3=O)(C1)C2 [SPC-TB-0007, 1,1′-(((((bicyclo[1.1.1]pentane-1,3-diylbis(methylene))bis(oxy))bis(ethane-2,1-diyl))bis(oxy))bis(ethane-2,1-diyl))bis(1H-pyrrole-2,5-dione)]	53	20	67	9	79	79	73	24	47	22	66	50	37	26	26	44	10	–
O=C1C=CC(=O)N1CCCOCC12CCC(COCCCN3C(=O)C=CC3=O)(CC1)CC2 [SPC-TB-0003]	–	–	–	–	–	–	–	29	9	77	10	–	–	–	–	–	–	–
O=C1C=CC(=O)N1CCOCCOCCOCC12CC(COCCOCCOCCN3C(=O)C=CC3=O)(C1)C2 [SPC-TB-0013]	67	16	66	15	57	57	46	–	–	–	–	–	–	36	10	–	–	50% mono and bis*
O=C1C=CC(=O)N1CCCOCC12CC(COCCCN3C(=O)C=CC3=O)(C1)C2 [SPC-TB-0001]	–	–	–	–	–	–	–	15	0	28	0	21	0	–	–	–	–	–
O=C1C=CC(=O)N1CCOCC12CC(COCCN3C(=O)C=CC3=O)(C1)C2 [SPC-TB-0002, 1,1′-(((bicyclo[1.1.1]pentane-1,3-diylbis(methylene))bis(oxy))bis(ethane-2,1-diyl))bis(1H-pyrrole-2,5-dione)]	–	–	–	–	–	–	–	17	0	11	0	10	0	–	–	–	–	–
O=C1C=CC(=O)N1CCCOCCOCCOCCCN1C(=O)C=CC1=O [Reference compound #1, reference compound]	50	0	60	0	97	88	82	9	0	10	0	22	29	30	30	56	9	–

— patent publication US12697290B2, “Cosmetic compounds having two linked maleimide groups, cosmetic preparations, and method for treatment of keratin materials” (TARA BRANDS EUROPE S.L.U., priority 2022, dated 2026)
